Columns and labels:
[1] = system: IFNγ-induced NO production in RAW264.7; assay: Suppression of IFNγ-induced NO production in RAW264.7 mouse macrophages (Griess reagent, normalized to WST-1 cell viability); format: cell-based; conditions: RAW264.7 cells, 2 h pre-treatment with drug (0-200 nM), then IFNγ for 24 h
Method: Nitric Oxide Production and Cell Viability. […] On the next day, cells were pre-treated with DMSO or drug (0-200 nM dose range) for 2 hours, and then treated with recombinant mouse IFNγ (R&D Systems) for 24 hours. Nitric Oxide concentration in media was determined using the Griess reagent system (Promega). Cell viability was determined using WST-1 reagent (Roche). IC50 values were determined based on the suppression of IFNγ induced Nitric Oxide production normalized to cell viability.

NQO1-ARE = NQO1-ARE luciferase reporter assay in HuH7 cells (Nrf2 transcriptional activity); format: cell-based; conditions: Homo sapiens, Huh-7, 62.5 nM compound, 18 h, Firefly normalized to Renilla, over DMSO vehicle control
Excerpt: NQO1-ARE Luciferase Reporter Assay.
This assay allows for quantitative assessment of the endogenous activity of the Nrf2 transcription factor in cultured mammalian cells. Expression of Firefly luciferase from NQO1-ARE luciferase reporter plasmid is controlled by binding of Nrf2 to a specific enhancer sequence corresponding to the antioxidant response element (ARE) that was identified in the promoter region of the human NADPH:quinone oxidoreductase 1 (NQO1) gene (Xie et al., 1995). The plasmid was constructed by inserting a sequence:
encompassing the human NQO1-ARE into the pLuc-MCS vector using HindIII/XhoI cloning sites (GenScript Corp., Piscataway, N.J.). The assay is performed in HuH7 cells maintained in DMEM (Invitrogen) supplemented with 10% FBS and 100 U/ml (each) of penicillin and streptomycin. For the assay, cells are plated in 96-well plates at 17,000 cells per well. Twenty four hours later, the cells are co-transfected with 50 ng each of NQO1-ARE reporter plasmid and pRL-TK plasmid using Lipofectamine 2000 transfection reagent (Invitrogen). pRL-TK plasmid constitutively expresses Renilla luciferase and is used as an internal control for normalization of transfection levels. Thirty hours after transfection, the cells are treated with compounds (at concentrations ranging from 0 to 1 μM) for eighteen hours. Firefly and Renilla luciferase activity is assayed by Dual-Glo Luciferase Assay (Promega Corp., Madison, Wis.), the luminescence signal is measured on an L-Max II luminometer (Molecular Devices). Firefly luciferase activity is normalized to the Renilla activity, and fold induction over a vehicle control (DMSO) of normalized Firefly activity is calculated. The fold induction at 62.5 nM concentration is used for comparing relative potencies of compounds to induce Nrf2 transcriptional activity. See Xie et al., 1995, which is incorporated herein by reference.

Row | Compound | IC50 [1] | fold induction at 0.0625 µM (NQO1-ARE)
1 | COC(=O)[C@]12CCC(C)(C)C[C@H]1[C@H]1C(=O)C=C3[C@@]4(C)C=C(C#N)C(=O)[C@@H](C)[C@@H]4CC[C@@]3(C)[C@]1(C)CC2 [TX63435] | 1 nM | 7.2
2 | C[C@@H]1C(=O)C(C#N)=C[C@]2(C)C3=CC(=O)[C@@H]4[C@@H]5CC(C)(C)CC[C@]5(C(=O)O)CC[C@@]4(C)[C@]3(C)CC[C@@H]12 [TX63520] | 10.1 nM | 5.3
3 | C[C@@H]1C(=O)C(C#N)=C[C@]2(C)C3=CC(=O)[C@@H]4[C@@H]5CC(C)(C)CC[C@]5(C(=O)n5ccnc5)CC[C@@]4(C)[C@]3(C)CC[C@@H]12 [TX63522] | 0.4 nM | 4.1
4 | C[C@@H]1C(=O)C(C#N)=C[C@]2(C)C3=CC(=O)[C@@H]4[C@@H]5CC(C)(C)CC[C@]5(C(=O)NCC(F)(F)F)CC[C@@]4(C)[C@]3(C)CC[C@@H]12 [TX63523] | 1 nM | 5.6
5 | C[C@@H]1C(=O)C(C#N)=C[C@]2(C)C3=CC(=O)[C@@H]4[C@@H]5CC(C)(C)CC[C@]5(CO)CC[C@@]4(C)[C@]3(C)CC[C@@H]12 [TX63545] | 0.7 nM | 7.2
6 | C[C@@H]1C(=O)C(C#N)=C[C@]2(C)C3=CC(=O)[C@]45OC(=O)[C@@]6(CCC(C)(C)C[C@H]64)CC[C@@]5(C)[C@]3(C)CC[C@@H]12 [TX63555] | 1.4 nM | 6.1
7 | Cc1nnc([C@]23CCC(C)(C)C[C@H]2[C@H]2C(=O)C=C4[C@@]5(C)C=C(C#N)C(=O)[C@@H](C)[C@@H]5CC[C@@]4(C)[C@]2(C)CC3)o1 [TX63616] | 0.7 nM | 4.4
8 | C[C@@H]1C(=O)C(C#N)=C[C@]2(C)C3=CC(=O)[C@@H]4[C@@H]5CC(C)(C)CC[C@]5(NC(=O)C(C)(F)F)CC[C@@]4(C)[C@]3(C)CC[C@@H]12 [TX63682] | 1.1 nM | 5.7
9 | COC(=O)[C@]12CCC(C)(C)C[C@H]1[C@H]1C(=O)C[C@@H]3[C@@]4(C)C=C(C#N)C(=O)[C@@H](C)[C@@H]4CC[C@@]3(C)[C@]1(C)CC2 [TX63749] | 3 nM | 2.3
10 | C[C@@H]1C(=O)C(C#N)=C[C@]2(C)C3=CC(=O)[C@@H]4[C@@H]5CC(C)(C)CC[C@]5(CCC(=O)N5CCCC5)CC[C@@]4(C)[C@]3(C)CC[C@@H]12 [TX63893] | 0.5 nM | 
11 | CCOC(=O)[C@]12CCC(C)(C)C[C@H]1[C@@]1(O)C(=O)C=C3[C@@]4(C)C=C(C#N)C(=O)[C@@H](C)[C@@H]4CC[C@@]3(C)[C@]1(C)CC2 [TX63901] | 1.3 nM | 
12 | C[C@@H]1C(=O)C(C#N)=C[C@]2(C)C3=C[C@@H](O)[C@]4(O)[C@@H]5CC(C)(C)CC[C@]5(CO)CC[C@@]4(C)[C@]3(C)CC[C@@H]12 [TX63904] | 10.4 nM | 
13 | C[C@@H]1C(=O)C(C#N)=C[C@]2(C)C3=CC(F)[C@]45OC(=O)[C@@]6(CCC(C)(C)C[C@H]64)CC[C@@]5(C)[C@]3(C)CC[C@@H]12 (some centres unmarked) [TX63907] | 1.6 nM | 
14 | C[C@@H]1C(=O)C(C#N)=C[C@]2(C)C3=CC(=O)[C@]4(O)[C@@H]5CC(C)(C)CC[C@]5(CO)CC[C@@]4(C)[C@]3(C)CC[C@@H]12 [TX63908] | 0.6 nM | 
15 | CC(=O)OC[C@]12CCC(C)(C)C[C@H]1[C@@]1(O)C(=O)C=C3[C@@]4(C)C=C(C#N)C(=O)[C@@H](C)[C@@H]4CC[C@@]3(C)[C@]1(C)CC2 [TX63909] | 1.4 nM | 
16 | C=C1C(O)=C(C#N)C[C@]2(C)C3=CC(=O)[C@@H]4[C@@H]5CC(C)(C)CC[C@]5(C(=O)OC)CC[C@@]4(C)[C@]3(C)CC[C@@H]12 [TX63910] | 304 nM | 
17 | C=C1C(=O)C(C#N)=C[C@]2(C)C3=CC(=O)[C@@H]4[C@@H]5CC(C)(C)CC[C@]5(C(=O)OC)CC[C@@]4(C)[C@]3(C)CC[C@@H]12 [TX63911] | 10 nM | 
18 | C[C@@H]1C(=O)C(C#N)=C[C@]2(C)C3=CC(=O)[C@@H]4[C@@H]5CC(C)(C)CC[C@]5(CCC(=O)NC5COC5)CC[C@@]4(C)[C@]3(C)CC[C@@H]12 [TX63914] | 0.4 nM | 
19 | CC(=O)NNC(=O)CC[C@]12CCC(C)(C)C[C@H]1[C@H]1C(=O)C=C3[C@@]4(C)C=C(C#N)C(=O)[C@@H](C)[C@@H]4CC[C@@]3(C)[C@]1(C)CC2 [TX63915] | 4 nM | 
20 | Cc1nnc(CC[C@]23CCC(C)(C)C[C@H]2[C@H]2C(=O)C=C4[C@@]5(C)C=C(C#N)C(=O)[C@@H](C)[C@@H]5CC[C@@]4(C)[C@]2(C)CC3)o1 [TX63916] | 0.4 nM | 
21 | C[C@@H]1C(=O)C(C#N)=C[C@]2(C)C3=CC(=O)[C@@H]4[C@@H]5CC(C)(C)CC[C@]5(CCCO)CC[C@@]4(C)[C@]3(C)CC[C@@H]12 [TX63918] | 0.5 nM | 
22 | COCCC[C@]12CCC(C)(C)C[C@H]1[C@H]1C(=O)C=C3[C@@]4(C)C=C(C#N)C(=O)[C@@H](C)[C@@H]4CC[C@@]3(C)[C@]1(C)CC2 [TX63919] | 1.4 nM | 
23 | CC(=O)OCCC[C@]12CCC(C)(C)C[C@H]1[C@H]1C(=O)C=C3[C@@]4(C)C=C(C#N)C(=O)[C@@H](C)[C@@H]4CC[C@@]3(C)[C@]1(C)CC2 [TX63920] | 0.9 nM | 
24 | C[C@@H]1C(=O)C(C#N)=C[C@]2(C)C3=C[C@@H](O)[C@@H]4[C@@H]5CC(C)(C)CC[C@]5(CO)CC[C@@]4(C)[C@]3(C)CC[C@@H]12 [TX63923] | 2.5 nM | 
25 | C[C@@H]1C(=O)C(C#N)=C[C@]2(C)C3=CC(=O)[C@@H]4[C@@H]5CC(C)(C)CC[C@]5(O)CC[C@@]4(C)[C@]3(C)CC[C@@H]12 [TX63925] | 0.4 nM | 
26 | CC(=O)O[C@]12CCC(C)(C)C[C@H]1[C@H]1C(=O)C=C3[C@@]4(C)C=C(C#N)C(=O)[C@@H](C)[C@@H]4CC[C@@]3(C)[C@]1(C)CC2 [TX63928] | 0.6 nM | 
27 | C[C@@H]1C(=O)C(C#N)=C[C@]2(C)C3=CC(=O)[C@@H]4[C@@H]5CC(C)(C)CC[C@]5(OC(N)=O)CC[C@@]4(C)[C@]3(C)CC[C@@H]12 [TX63929] | 0.5 nM | 
28 | C[C@@H]1C(=O)C(C#N)=C[C@]2(C)C3=CC(=O)[C@@H]4[C@@H]5CC(C)(C)CC[C@]5(F)CC[C@@]4(C)[C@]3(C)CC[C@@H]12 [TX63936] | 1.1 nM | 
29 | CCNC(=O)OCCC[C@]12CCC(C)(C)C[C@H]1[C@H]1C(=O)C=C3[C@@]4(C)C=C(C#N)C(=O)[C@@H](C)[C@@H]4CC[C@@]3(C)[C@]1(C)CC2 [TX63982] | 3.5 nM | 

Reference: patent US9290536B2, “C4 monomethyl triterpenoid derivatives and methods of use thereof” (Reata Pharmaceuticals, Inc., priority 2011, dated 2016)
